Reference: patent publication US20160031836A1, “BIOMARKER” (Novartis AG, priority 2013, published 2016)
Blank lines part the entries; values can stand above or below the compound they belong to.

Columns and labels:
[1] = test system: A375 cells; assay: Cell colony formation assay with MLL1 knockdown, NVP-LGX818; type: cell-based, human; conditions: shMLL1
Method: Supplementary FIG. 5: Cell colony formation assay of HSF1 knockdown or MLL1 knockdown with NVP-LGX818 treatment in A375 cells 5000 shNTC, shHSF1 or shMLL1 A375 cells were seeded in six wells plate and were treated or untreated with Doxycycline for 5 days, then followed by compound treatment for 6 days.

[2] = test system: MOLM13; assay: Cell proliferation by CellTiter-Glo, human leukemia cells; type: cell-based; conditions: MOLM13, 72 h
Method: (§1) Eight human leukemia cells with or without MLL1 translocation were treated with AUY922 for 72 h and cell proliferation rate were measured by CellTiter-Glo. IC95 were used to estimate the cell response to HSP90 inhibition. Supplementary Table. S1: 35 Genes were Identified as Modulators of Cell Response to HSP90 Inhibition by siRNA Screening

[3] = test system: NOMO; assay: as above; type: cell-based; conditions: 72 h
Method: as §1

[4] = test system: RS(4,11); assay: as above; type: cell-based; conditions: 72 h
Method: as §1

[5] = test system: other leukemia cell lines; assay: as above; type: cell-based; conditions: 72 h
Method: as §1

[6] = test system: MLL1+/+ MEFs; assay: Microscopic analysis and dose response (CTG) in MEFs; type: cell-based, mouse
Method: (§2) A. Cell colony formation assay of MLL1 knockdown with AUY922 treatment in A375 cells. 5000 shNTC or shMLL1 A375 cells were seeded in six wells plate and were treated or untreated with Doxycycline for 5 days, then followed by compound treatment for 6 days. B. Cell colony formation assay of MLL1 knockdown with AUY922 treatment in A2058 cells. 5000 shNTC or shMLL1 A2058 cells were seeded in six wells plate and were treated or untreated with Doxycycline for 5 days, then followed by compound treatment for 6 days. C. Western blotting analysis of tumor samples. Tumor samples were collected at the end of studies and western blotting analysis of MLL1 and GAPDH were performed. D. Real-time PCR analysis of tumor samples. Tumor samples were collected at the end of studies and total mRNA was collected and Real-time PCR was performed. E. The combinational effect of MLL1 knockdown and HSP90 inhibitor in A375 xenograft mouse model. Tumor growth rate of A375 cells expressing inducible control shRNA or shRNA against MLL1 under Doxycycline and/or HSP990 were compared at different time points. […] The percentage of S+G2M cells were determined by PI staining. […] The apoptotic cells represented by 7AAD+AnnexinV+ were determined by FACS. […] Relative cell growth was measured by CTG. […] The apoptotic cells represented by 7AAD+AnnexinV+ were determined by FACS.

[7] = test system: MLL1−/− MEFs; assay: as above; type: cell-based, mouse; conditions: after 48 h treatment
Method: as §2

[8] = test system: MLL1+/+ MEFs; assay: Cell apoptosis analysis (7AAD+AnnexinV+, FACS) in MEFs; type: cell-based, mouse; conditions: AUY922 100 nM, 48 h
Method: as §2

[9] = test system: MLL1−/− MEFs; assay: as above; type: cell-based, mouse; conditions: AUY922 100 nM, 48 h
Method: as §2

[10] = test system: human primary BALL cells; assay: Dose response in human primary BALL cells (CellTiter-Glo); type: cell-based; conditions: 48 h
Method: A. The percentage of human leukemia cells in bone marrow of recipient mice transplanted with human primary leukemia cells. The human cells represented by human CD45+ were determined by FACS. B. Real-time PCR analysis of MLL1 expression among different human primary leukemia cell. C. Dose response of AUY922 in human primary BALL cells. Human primary BALL cells were treated with DMSO or serial dilutions of AUY922 for 48 h. Relative cell growth was measured by CellTiter-Glo. D. JURKAT, SEM, RS(4,11) and MOLM13 were treated for 72 h with different doses of AUY922 and/or NVP-JAE067, inhibition of cell viability was measured using the CellTiter-Glo assay. E. Chalice software was used to calculate excess inhibition over Loewe additivity for each AUY922 and NVP-JAE067 dose combination.
To investigate whether MLL1 expression is different in primary human cancer cells, we examined the expression of MLL1 in human B acute lymphoblastic leukemia samples. The primary human BALL cells were transplanted into immune deficient mice and bone marrow cells were collected from recipient mice until blood tumor burden is higher than 70% by FACS analysis. […] We next evaluated the efficacy of AUY922 on those human leukemia cells. […] We next tested the combination effect of AUY922 and DOT1L inhibitor NVP-JAE067 on human leukemia cells. […] Taken together, those result indicated human leukemia cells with MLL1 low expression may be more sensitive to HSP90 inhibition and the combination of HSP90 inhibitor and DOT1L inhibitor may be a good strategy for human leukemia cells harboring MLL1 translocation.

[11] = test system: A375, A2058 and HCT116; assay: Cell colony formation assay with MLL1 knockdown; type: cell-based, human; conditions: Doxycycline 5 days, compound 6 days
Method: A. Cell colony formation assay of MLL1 knockdown with AUY922 treatment in A375 cells. 5000 shNTC or shMLL1 A375 cells were seeded in six wells plate and were treated or untreated with Doxycycline for 5 days, then followed by compound treatment for 6 days. B. Cell colony formation assay of MLL1 knockdown with AUY922 treatment in A2058 cells. 5000 shNTC or shMLL1 A2058 cells were seeded in six wells plate and were treated or untreated with Doxycycline for 5 days, then followed by compound treatment for 6 days. C. Western blotting analysis of tumor samples. Tumor samples were collected at the end of studies and western blotting analysis of MLL1 and GAPDH were performed. D. Real-time PCR analysis of tumor samples. Tumor samples were collected at the end of studies and total mRNA was collected and Real-time PCR was performed. E. The combinational effect of MLL1 knockdown and HSP90 inhibitor in A375 xenograft mouse model. Tumor growth rate of A375 cells expressing inducible control shRNA or shRNA against MLL1 under Doxycycline and/or HSP990 were compared at different time points. […] The percentage of S+G2M cells were determined by PI staining. […] The apoptotic cells represented by 7AAD+AnnexinV+ were determined by FACS. […] Relative cell growth was measured by CTG. […] The apoptotic cells represented by 7AAD+AnnexinV+ were determined by FACS. […]

[12] = test system: binding of HSF1 to HSP70 or BAG3 promoter; assay: ChIP with HSF1 antibody, quantitative real-time PCR; type: cell-based, human; conditions: A375 cells, AUY922 100 nM, one hour
Method: shHSF1 transduced A375 cells were treated with or without Doxycycline for 3 days and were further treated with AUY922 100 nM for 1 h. Chromatin was immunoprecipitated with anti-MLL1 antibody and amplified by quantitative real-time PCR using primers around HSE element of HSP70 (A) or BAG3 (B) gene promoter and MLL1 binding site of MESI1 (C) promoter.
To examine the recruitment of MLL1 to the HSF1-modulated gene promoter, we performed chromatin immunoprecipitation (ChIP) with A375 cells transduced with control or shMLL1 and treated or untreated with AUY922 for 1 h. Chromatin from those cells was sonicated to obtain fragments below 500 bp and immunoprecipitated using polyclonal against HSF1 and MLL1. Quantitative real-time PCR analysis was carried out with primer specific for the HSP70 and BAG3 encompassing the HSE element. MLL1 binding site of MESI1 was used as a control. […] In contrast, the bindings were not detected in A375 cells with inducible HSF1 knockdown (Supplement FIG. 3). A significant of MLL1 occupancy of the HSP70 and BAG3 gene promoter is also observed at one hour of AUY922 treatment (FIGS. 2C and D). In contrast, the binding of MLL1 to MESI promoter was not detected (FIG. 2E). […]

[13] = test system: A375 xenograft; assay: A375 xenograft mouse model, tumor growth; type: in vivo
[14] = test system: SEM xenograft; assay: SEM xenograft mouse model, tumor growth; type: in vivo; conditions: 10 mg/kg PO, qw
Method: (§3) A. Real-time PCR analysis of different human leukemia cell lines under HSP90 inhibitor treatment. Human leukemia cells were cultured and treated or untreated with AUY922 for 48 h. Then, total mRNA was collected and Real-time PCR was performed. B. Cell apoptosis analysis of MLL1 low expression or MLL1 high expression human leukemia cells with AUY922 treatment. Human leukemia cells were treated or untreated with AUY922 100 nM for 48 h. The apoptotic cells represented by 7AAD+AnnexinV+ were determined by FACS. C. The effect of HSP90 inhibitor in SEM and MOLM13 xenograft mouse model. Tumor growth rate of SEM and MOLM13 under HSP990 treatment were compared at different time points. […] SEM and MOLM13 cells were treated or untreated with AUY922 100 nM for 3 h. Total RNA were collected and microarray was performed.
(§4) Mice were maintained and handled in accordance with Novartis Biomedical Research Animal Care and Use Committee protocols and regulations. A375 with Tet-inducible shRNA against MLL1 were cultured in DMEM supplemented with 10% Tet-approved FBS. Mice (6-8 wk old, n=8) were inoculated s.c. with 1×10^6 cells in the right dorsal axillary region. Tumor volume was measured by calipering in two dimensions and calculated as (length×width2)/2. […] Data were expressed as mean±SEM, and differences were considered statistically significant at P<0.05 by Student t test.

[15] = test system: MOLM13 xenograft; assay: MOLM13 xenograft mouse model, tumor growth; type: in vivo; conditions: 10 mg/kg PO, qw
Method: as §3, §4

Compound: COC(=O)N[C@@H](C)CNc1nccc(-c2cn(C(C)C)nc2-c2cc(Cl)cc(NS(C)(=O)=O)c2F)n1 [NVP-LGX818]
combinational effect with MLL1 knockdown, colony formation [1]: does not have a combinational effect

binding of HSF1 to HSP70 or BAG3 promoter (ChIP) [12]: increased about ten times
Compound: CCNC(=O)c1noc(-c2cc(C(C)C)c(O)cc2O)c1-c1ccc(CN2CCOCC2)cc1 [AUY922, 5-(2,4-Dihydroxy-5-isopropyl-phenyl)-4-(4-morpholin-4-ylmethyl-phenyl)-isoxazole-3-carboxylic acid ethylamide]
IC95 [2]: about 100 nM | IC95 [3]: about 100 nM | IC95 [4]: about 100 nM | IC95 [5]: about 1000 nM | effect on proliferation / killing of cells [6]: inhibits the proliferation rate of MEFs, but didn't kill those cells | cells killed [7]: more than 90% | cells induced apoptosis [8]: 30% | cells induced apoptosis [9]: more than 80% | response to treatment (relative cell growth) ([10]; P1 leukemia cells with high MLL1 expression): didn't response | response to treatment (relative cell growth) ([10]; P4 leukemia cells with low MLL1 expression): good response | response to treatment (relative cell growth) ([10]; other two human leukemia samples): a certain response | sensitivity in colony formation on induction of MLL1 shRNA [11]: dramatically sensitivity

Compound: COc1cccc(-c2cc(F)ccc2[C@H]2Cc3nc(N)nc(C)c3C(=O)N2)n1 [HSP990, (R)-2-amino-7-[4-fluoro-2-(6-methyoxy-pyridin-2-yl)-phenyl]-4-methyl-7,8-dihydro-6H-pyrido[4,3-d]pyrimidin-5-one]
tumor growth outcome ([13]; HSF1 knockdown & HSP990 combination): tumor stasis | inhibited tumor growth, T/C ([13]; HSP990 alone, 10 mg/kg PO, qw): 50 % T/C | inhibited tumor growth, T/C [14]: 30 % T/C | inhibited tumor growth, T/C [15]: 60 % T/C
